Experimental data reported in patent US4226883A, “Carbamate derivatives and method for manufacture thereof” (priority 1974, dated 1980).
Read-outs that look alike come from different tables or passages of the source.

Assays:
[1] = tested on: resistant green rice leafhoppers (R); settings: ratio of the resistant strain to the susceptible strain (LD50); 1440 min
Experimental: (1) A 20-mg portion of a given test compound was weighed out and dissolved in 10 ml of acetone. The resultant solution was diluted at proper times with acetone.
(2) With a micro-syringe, the acetone solution of the test compound was topically applied to the thoracic region of female green rice leafhoppers at a fixed dose of 0.2 μl per head.
(3) The female green rice leafhoppers thus treated were placed in a plastic cup prepared in advance (measuring 7 cm in diameter and 3.5 cm in depth and containing rice seeds) and kept at a constant temperature of 26±1° C. After 24 hours' standing, the dead insects were counted.
In the case of a mixed insecticide, the LD50 was shown as a total dosage.

[2] = target: cholinesterase (ChE), susceptible strain; assay: Inhibition of cholinesterase (acetylthiocholine method), susceptible strain enzyme; format: biochemical, green rice leafhopper, Nephotettix cincticeps; settings: for IC50: 50% inhibition concentration, 30° C. 30 min with inhibitor, read-out: Inhibition of Cholinesterase I50 (M) S
Experimental: The activity of ChE was performed by the acethyethiocholine method [Ellman (1961), Biochemical Pharmacology 7: 88-95].
[…]. After centrifuged (30,000 g, 10 min.), the supernatant was used as the source of ChE.
(§1) (2) Inhibition: 1.0 ml of enzyme solution was incubated with 0.1 ml of inhibitor which diluted with acetone at 30° C. for 30 min. ((2) solution).
(3) Determination of ChE activity: 1.0 ml of acetylthiochline (3.5/2×10^-2 M), 1.0 ml of DTNB (5,5'-dithiobis-2-nitrobenzoic acid, 2.5×10^-4 M) and 4.0 ml of phosphate buffer (1/15 M, pH 7.4) were added to the (2) solution and incubated at 30° C. for 10 min. After incubation, […] of eserine (2×10^-3 M) was added in order to stop the enzyme reaction and the optical density of the yellow solution was measured at 412 mμ on the spectrophotometer.

[3] = tested on: cholinesterase (ChE), resistant strain; format: biochemical, green rice leafhopper, Nephotettix cincticeps; settings: for Inhibition of Cholinesterase R/S (resistant ratio): ratio of the resistant strain to the susceptible strain (I50), 30 min; for IC50 / rate of inhibition (%) in 10^-3 M, R: resistant strain; for IC50: 50% inhibition concentration, 30° C. 30 min with inhibitor, read-out: Inhibition of Cholinesterase I50 (M) R
Experimental: After centrifuged (30,000 g, 10 min.), the supernatant was used as the source of ChE.
as §1
(3) Determination of ChE activity: 1.0 ml of acetylthiochline (3.5/2×10^-2 M), 1.0 ml of DTNB (5,5'-dithiobis-2-nitrobenzoic acid, 2.5×10^-4 M) and 4.0 ml of phosphate buffer (1/15 M, pH 7.4) were added to the (2) solution and incubated at 30° C. for 10 min.

[4] = tested on: green rice leafhoppers of the strain RN; assay: Test Example 3: dust spray test (20 mesh metal gauze cylinder); format: in vivo, Nephotettix cincticeps; settings: for Effect of individual compound (RN), death ratio (%) (Table 9): dust, compound alone, RN strain; for death ratio (%), mixture with Compound No. 1 / death ratio (%), mixture with Compound No. 6* / death ratio (%), mixture with Compound No. 24* / death ratio (%), mixture with Compound No. 35* / death ratio (%), mixture with Compound No. 40* / death ratio (%), mixture with Compound No. 49* / death ratio (%), mixture with Compound No. 81* / death ratio (%), mixture with Compound No. 118* / death ratio (%), mixture with Carbofuran / death ratio (%), mixture with Methomyl: Table 9, RN; for death ratio (%), mixture with Compound No. 1: dust mixed with 1; for death ratio (%), mixture with Compound No. 6*: dust mixed with 6*; for death ratio (%), mixture with Compound No. 24*: dust mixed with 24*; for death ratio (%), mixture with Compound No. 35*: dust mixed with 35*; for death ratio (%), mixture with Compound No. 40*: dust mixed with 40*; for death ratio (%), mixture with Compound No. 49*: dust mixed with 49*; for death ratio (%), mixture with Compound No. 81*: dust mixed with 81*; for death ratio (%), mixture with Compound No. 118*: dust mixed with 118*; for death ratio (%), mixture with Carbofuran: dust mixed with Carbofuran; for death ratio (%), mixture with Methomyl: dust mixed with Methomyl
Experimental: The insecticides in the form of dust were tested for insecticidal activity.
(§2) The test for insecticidal activity was performed by the following procedure. […] The dust of a test compound (pulverized by means of a shaking pulverizer made by Taira Kosakusho, Ltd.) was applied onto the tube contents at a prescribed rate by spraying from outside the metal gauze by means of a bell-jar duster. The dust of the test compound was prepared uniformly mixing 2 parts of the dust of the individual compound or 1 part each of the dusts of the mixture components (total 2 parts) and 98 parts of a carrier obtained by mixing talc and clay in equal volumes.

[5] = tested on: green rice leafhoppers of the strain RN; assay: Test Example 4: dust test with 35 mesh metal gauze; format: in vivo, Nephotettix cincticeps
Experimental: as §2

Row | SMILES | Insecticidal Activity R/S (resistant ratio) [1] | IC50 [2] | Inhibition of Cholinesterase R/S (resistant ratio) [3] | IC50 [3] | other results
1 | CCNC(=O)Oc1ccccc1C(C)C [Compound 2, 2-isopropylpheny-N-ethylcarbamate] | 2.1 | 3.2e-05 M | 1.6 | 5.2e-05 M | 
2 | CCCCNC(=O)Oc1ccccc1C(C)CC (centres unmarked) [Compound 9] | < 1.0 | > 0.001 M | < 0.1 | 0.00014 M | 
3 | CCNC(=O)Oc1cccc(C(C)C)c1 [Compound 12] | 3.7 | 3.7e-05 M | 0.5 | 1.7e-05 M | 
4 | CCNC(=O)Oc1cccc(C(C)CC)c1 (centres unmarked) [Compound 16] | 3.7 | 6.5e-06 M | 0.9 | 5.6e-06 M | 
5 | CCCCNC(=O)Oc1cccc(C(C)CC)c1 (centres unmarked) [Compound 18] | 0.9 | 5e-05 M | 0.09 | 4.3e-06 M | 
6 | CCCC(C)c1cccc(OC(=O)NCC)c1 (centres unmarked) [Compound 20] | 1.5 | 3.4e-06 M | 1.2 | 4.1e-06 M | 
7 | CCCCNC(=O)Oc1cccc(C(C)CCC)c1 (centres unmarked) [Compound 22] | 0.9 | 5.1e-05 M | 0.1 | 6.3e-06 M | 
8 | CCc1cccc(OC(=O)NC)c1 [Compound 29, reference compound] | 14.9 | 2.9e-06 M | 41.4 | 0.00012 M | 
9 | CCNC(=O)Oc1cccc(CC)c1 [Compound 30] | 1.7 | 0.0002 M | 0.8 | 0.00016 M | 
10 | C=CCNC(=O)Oc1cccc(C(C)(C)C)c1 [Compound 34] | 1.1 | 2.6e-05 M | 0.3 | 8.9e-06 M | 
11 | CCNC(=O)Oc1cc(C)cc(C)c1 [Compound 41, 3.5-dimethylphenyl-N-ethylcarbamate] | 2.0 | 0.00011 M | 0.7 | 7.9e-05 M | mortality at 100 mg/cylinder ([4]; 2% dust, 100 mg, 24 hr, read-out: Mortality (%) after 24 hr., 100 mg Spray (Table 7)): 50%; mortality at 250 mg/cylinder ([4]; 2% dust, 250 mg, 24 hr, read-out: Mortality (%) after 24 hr., 250 mg Spray (Table 7)): 70%
12 | CNC(=O)Oc1cccc2ccccc12 [Compound 49, 1-naphthyl-N-methylcarbamate] |  |  |  |  | Effect of individual compound (RN), death ratio (%) (Table 9) [4]: 0%; mortality at 100 mg ([5]; 1 h, read-out: Death ratio (%) 1 hr., Dusting amount 100 mg): 0%; mortality at 250 mg ([5]; 1 h, read-out: Death ratio (%) 1 hr., Dusting amount 250 mg): 0%; mortality at 500 mg ([5]; 1 h, read-out: Death ratio (%) 1 hr., Dusting amount 500 mg): 0%; mortality at 100 mg ([5]; 2 h, read-out: Death ratio (%) 2 hrs., Dusting amount 100 mg): 0%; mortality at 250 mg ([5]; 2 h, read-out: Death ratio (%) 2 hrs., Dusting amount 250 mg): 0%; mortality at 500 mg ([5]; 2 h, read-out: Death ratio (%) 2 hrs., Dusting amount 500 mg): 0%; mortality at 100 mg ([5]; 4 h, read-out: Death ratio (%) 4 hrs., Dusting amount 100 mg): 0%; mortality at 250 mg ([5]; 4 h, read-out: Death ratio (%) 4 hrs., Dusting amount 250 mg): 0%; mortality at 500 mg ([5]; 4 h, read-out: Death ratio (%) 4 hrs., Dusting amount 500 mg): 0%; mortality at 100 mg ([5]; 16 h, read-out: Death ratio (%) 16 hrs., Dusting amount 100 mg): 0%; mortality at 250 mg ([5]; 16 h, read-out: Death ratio (%) 16 hrs., Dusting amount 250 mg): 0%; mortality at 500 mg ([5]; 16 h, read-out: Death ratio (%) 16 hrs., Dusting amount 500 mg): 0%; mortality at 100 mg ([5]; 24 h, read-out: Death ratio (%) 24 hrs., Dusting amount 100 mg): 0%; mortality at 250 mg ([5]; 24 h, read-out: Death ratio (%) 24 hrs., Dusting amount 250 mg): 0%; mortality at 500 mg ([5]; 24 h, read-out: Death ratio (%) 24 hrs., Dusting amount 500 mg): 0%
13 | CNC(=O)Oc1ccccc1OC [Compound 76, reference compound] |  | 1.7e-05 M | 32.3 | 0.00055 M | death ratio (%), mixture with Compound No. 1 [4]: 15.0%; death ratio (%), mixture with Compound No. 6* [4]: 0%; death ratio (%), mixture with Compound No. 24* [4]: 20.0%; death ratio (%), mixture with Compound No. 35* [4]: 10.0%; death ratio (%), mixture with Compound No. 40* [4]: 0%; death ratio (%), mixture with Compound No. 49* [4]: 0%; death ratio (%), mixture with Compound No. 81* [4]: 35.0%; death ratio (%), mixture with Compound No. 118* [4]: 45.0%; death ratio (%), mixture with Carbofuran [4]: 60.0%; death ratio (%), mixture with Methomyl [4]: 55.0%; Effect of individual compound (RN), death ratio (%) (Table 9) [4]: 0%
14 | CCOc1ccccc1OC(=O)NC [Compound 79, reference compound] |  | 2.5e-05 M | 12.0 | 0.0003 M | death ratio (%), mixture with Compound No. 1 [4]: 0%; death ratio (%), mixture with Compound No. 6* [4]: 0%; death ratio (%), mixture with Compound No. 24* [4]: 0%; death ratio (%), mixture with Compound No. 35* [4]: 0%; death ratio (%), mixture with Compound No. 40* [4]: 10.0%; death ratio (%), mixture with Compound No. 49* [4]: 0%; death ratio (%), mixture with Compound No. 81* [4]: 5.0%; death ratio (%), mixture with Compound No. 118* [4]: 25.0%; death ratio (%), mixture with Carbofuran [4]: 40.0%; Effect of individual compound (RN), death ratio (%) (Table 9) [4]: 0%
15 | CCOc1cccc(OC(=O)NC)c1 [Compound 92, reference compound] |  | 1.7e-05 M | 17.6 | 0.0003 M | death ratio (%), mixture with Compound No. 1 [4]: 0%; death ratio (%), mixture with Compound No. 6* [4]: 0%; death ratio (%), mixture with Compound No. 24* [4]: 0%; death ratio (%), mixture with Compound No. 35* [4]: 10.0%; death ratio (%), mixture with Compound No. 40* [4]: 5.0%; death ratio (%), mixture with Compound No. 49* [4]: 0%; death ratio (%), mixture with Compound No. 81* [4]: 0%; death ratio (%), mixture with Compound No. 118* [4]: 25.0%; death ratio (%), mixture with Carbofuran [4]: 20.0%; death ratio (%), mixture with Methomyl [4]: 40.0%; Effect of individual compound (RN), death ratio (%) (Table 9) [4]: 0%
16 | CNC(=O)Oc1ccccc1NC(C)C [Compound 110, reference compound] |  | 2.3e-06 M | 73.9 | 0.00017 M | 
17 | CNC(=O)Oc1ccc(SC)c(C)c1 [Compound 135, reference compound] |  | 1e-05 M | 3.5 | 3.5e-05 M | 
18 | CNC(=O)Oc1ccccc1 [Compound 140, reference compound] |  | 0.00013 M |  | > 0.001 M | rate of inhibition (%) in 10^-3 M, R [3]: 42.5%
19 | CCNC(=O)Oc1ccccc1 [Compound 141, phenyl-N-ethylcarbamate] |  | > 0.001 M |  | > 0.001 M | rate of inhibition (%) in 10^-3 M, S [2]: 30.4%; rate of inhibition (%) in 10^-3 M, R [3]: 43.4%
20 | CCCNC(=O)Oc1ccccc1 [Compound 142, phenyl-N-n-propylcarbamate] |  | > 0.001 M | < 0.6 | 0.00066 M | rate of inhibition (%) in 10^-3 M, S [2]: 12.0%
21 | CCCCNC(=O)Oc1ccccc1 [Compound 143] |  | > 0.001 M |  | > 0.001 M | rate of inhibition (%) in 10^-3 M, S [2]: 3.3%; rate of inhibition (%) in 10^-3 M, R [3]: 46.0%
22 | C=CCNC(=O)Oc1ccccc1 [Compound 144, phenyl-N-allylcarbamate] |  | > 0.001 M | < 0.5 | 0.00052 M | rate of inhibition (%) in 10^-3 M, S [2]: 10.00%
